Data from patent publication US10464896B2, “Efflux-pump inhibitors and therapeutic uses thereof” (Basilea Pharmaceutica International AG, priority 2015, dated 2019).

Columns and labels:
P. aeruginosa PAO1 = assay: Antibacterial activity in combination with minocycline (growth inhibition); type: cell-based; conditions: Pseudomonas aeruginosa, PAO1, compound at 50 μM; minocycline 8 μg/mL; OD625 23 h minus 1 h; read-out: residual growth of P. aeruginosa PAO1 (% of uninhibited control) with minocycline
Outline: (§1)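 Test compound combined with fixed subinhibitory partner antibiotic: linezolid 128 μg/mL for either strain, minocycline 0.25 μg/mL (E. coli) or 8 μg/mL (P. aeruginosa), in caMHB shaken at 37 °C. Residual growth as % of inhibitor-free control, from OD625 at 23 h minus 1 h.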

E. coli ATCC25922 = assay: as above; type: cell-based; conditions: Escherichia coli, minocycline 0.25 μg/mL, OD625 23 h minus 1 h, read-out: residual growth of E. coli ATCC25922 (% of uninhibited control) with minocycline; for activity at 25 µM: ATCC25922, compound at 25 μM; for activity at 50 µM: ATCC25922, compound at 50 μM
Outline: as §1

| Structure (SMILES) | activity at 50 µM (P. aeruginosa PAO1) | activity at 25 µM (E. coli ATCC25922) | activity at 50 µM (E. coli ATCC25922) |
| --- | --- | --- | --- |
| CS(=O)(=O)c1ccc(COc2cccc(CNCC3CNC3)c2)c(Cl)c1 [Example 102] | ≤ 50% |  |  |
| C=CCOc1cc(CNCC2CNC2)cc(OCc2cncc(C(N)=O)c2)c1 [Example 437] | ≤ 50% |  |  |
| Brc1ccccc1COc1cccc(CNCC2CCNC2)c1 (stereo not drawn) [Example 220] | ≤ 50% |  |  |
| N#Cc1ccc(/C=C/c2cccc(CNCC3CCNC3)c2)c(C(F)(F)F)c1 (stereo not drawn) [Example 314] | ≤ 50% | ≤ 10% |  |
| C=CCOc1cc(/C=C/c2nc(C(C)C)cs2)cc(CNCC2CCNC2)c1 (stereo not drawn) [Example 353] | ≤ 50% | ≤ 10% |  |
| CC(C)(C)c1ccc(COc2cccc(CNCC3CNC3)c2)cc1 [Example 222] | ≤ 50% | ≤ 10% |  |
| CC(C)(c1ccccc1)c1ccc(OCCNCC2CNC2)cc1 [Example 50] | ≤ 50% |  | ≤ 50% |
| C(=C\c1cc(CNCC2CCNC2)cc(OCCN2CCOCC2)c1)/c1cccnc1 (stereo not drawn) [Example 440] | ≤ 50% |  |  |
| Ic1cccc(COc2cccc(CNCC3CNC3)c2)c1 [Example 219] | ≤ 50% | ≤ 10% |  |
| Clc1ccc(COc2cccc(CCNCC3CNC3)c2)cc1 [Example 28] | ≤ 50% | ≤ 10% |  |
| C=CCOc1cc(/C=C/c2ccc(Cl)cc2Br)cc(CNC(=O)[C@H]2CCNC2)c1 [Example 366] | ≤ 50% | ≤ 10% |  |
| Clc1ccc(Oc2ccccc2CNCC2CNC2)c(Br)c1 [Example 89] | ≤ 50% |  | ≤ 50% |
| C=CCOc1cc(/C=C/c2cnccc2C#N)cc(CNCC2CCNC2)c1 (stereo not drawn) [Example 316] | ≤ 50% | ≤ 10% |  |
| Ic1ccc(COc2cccc(CNCC3CNC3)c2)cc1 [Example 206] | ≤ 50% |  |  |
| Ic1cccc(COc2cccc(CNCC3CCNC3)c2)c1 (stereo not drawn) [Example 221] | ≤ 50% | ≤ 10% |  |
| CC(C)(C)c1ccc(COc2cc(CNCC3CNC3)cc(OCCN3CCOCC3)c2)cc1 [Example 277] | ≤ 50% | ≤ 10% |  |
| Clc1ccc(Oc2ccc(CNCC3CCNC3)cc2)c(Br)c1 (stereo not drawn) [Example 82] | ≤ 50% | ≤ 10% |  |
| CC(C)COc1cc(CNCC2CCNC2)cc(CNC(=O)c2cccc(C(N)=O)c2)c1 (stereo not drawn) [Example 477, N1-[[3-isobutoxy-5-[(pyrrolidin-3-ylmethylamino)methyl]phenyl]methyl]benzene-1,3-dicarboxamide] | ≤ 50% |  |  |
| C=CCOc1cc(CNCC2CCNC2)cc(OCCc2ccncc2)c1 (stereo not drawn) [Example 424] | ≤ 50% |  |  |
| CC(C)(C)c1ccc(COc2cccc(CNC3CCNCC3)c2)cc1 [Example 223] | ≤ 50% | ≤ 10% |  |
| Clc1ccc(-c2cccc(CNCC3CCNC3)c2)c(Br)c1 (stereo not drawn) [Example 74] | ≤ 50% | ≤ 10% |  |
| N#Cc1cncc(/C=C/c2cc(CNCC3CCNC3)cc(OCCc3ccncc3)c2)c1 (stereo not drawn) [Example 496] | ≤ 50% |  |  |
| C[N+]1(C)CC(OCc2cc(CNCC3CNC3)cc(OCc3ccc(Cl)cc3Br)c2)CC1C(=O)O (stereo not drawn) [Example 288] | ≤ 50% |  | ≤ 50% |

| Structure (SMILES) | activity at 50 µM (P. aeruginosa PAO1) | activity at 25 µM (E. coli ATCC25922) | activity at 50 µM (E. coli ATCC25922) |
| --- | --- | --- | --- |
| c1cncc(COc2cc(CNCC3CNC3)cc(OCCc3ccncc3)c2)c1 [Example 425] | ≤ 50% |  |  |
| FC(F)(F)c1cc(Cl)ccc1COc1cccc(CNCC2CNC2)c1 [Example 131] | ≤ 50% | ≤ 10% |  |
| O=C(NCc1cc(CNCC2CNC2)cc(OCCc2ccncc2)c1)c1cccnc1 [Example 510] | ≤ 50% |  |  |
| Clc1ccc(COc2cccc(CNCC3CNC3)c2)c(Cl)c1 [Example 177] | ≤ 50% | ≤ 10% |  |
| C=CCOc1cc(/C=C/c2ccccc2OC)cc(CNCC2CNC2)c1 [Example 285] | ≤ 50% | ≤ 10% |  |
| C=CCOc1cc(/C=C/c2ccc(OC)cc2OC)cc(CNCC2CNC2)c1 [Example 323] | ≤ 50% | ≤ 10% |  |
| C=CCOc1cc(CNCC2CCNC2)cc(CNC(=O)c2ccc(Cl)cc2Br)c1 (stereo not drawn) [Example 349] | ≤ 50% |  |  |
| COc1cc(C#N)ccc1COc1cccc(CNCC2CNC2)c1 [Example 26] | ≤ 50% |  | ≤ 50% |
| Clc1ccc(COCc2cccc(CNCC3CNC3)c2)c(Br)c1 [Example 173, N-(azetidin-3-ylmethyl)-1-[3-[(2-bromo-4-chloro-phenyl)methoxymethyl]phenyl]methanamine] | ≤ 50% | ≤ 10% |  |
| CC(C)COc1cc(/C=C/c2cccc(C(N)=O)c2)cc(CNCC2CCNC2)c1 (stereo not drawn) [Example 331] | ≤ 50% | ≤ 10% |  |
| C=CCOc1cc(/C=C/c2ccc(Cl)cc2Br)cc(C(=O)NCC(=O)NCC2CNC2)c1 [Example 445] | ≤ 50% | ≤ 10% |  |
| C=CCOc1cc(/C=C/c2cccc(OC)c2)cc(CNCC2CNC2)c1 [Example 276] | ≤ 50% | ≤ 10% |  |
| Clc1ccc(NCc2cccc(CNCC3CNC3)c2)c(Br)c1 [Example 170] | ≤ 50% | ≤ 10% |  |
| C=CCOc1cc(/C=C/c2ccsc2)cc(CNCC2CCNC2)c1 (stereo not drawn) [Example 320] | ≤ 50% | ≤ 10% |  |
| C=CCOc1cc(/C=C/c2cncc(C(N)=O)c2)cc(CNCC2CCNC2)c1 (stereo not drawn) [Example 458] | ≤ 50% |  |  |
| N#Cc1cncc(/C=C/c2cc(O)cc(CNCC3CCNC3)c2)c1 (stereo not drawn) [Example 480, 5-[(E)-2-[3-hydroxy-5-[(pyrrolidin-3-ylmethylamino)methyl]phenyl]vinyl]pyridine-3-carbonitrile] | ≤ 50% |  |  |
| Clc1ccc(OCc2ccc(CNCC3CNC3)o2)c(Br)c1 [Example 93] | ≤ 50% |  |  |
| Cc1n[nH]c(C)c1CCOc1cc(/C=C/c2ccc(Cl)cc2Br)cc(CNCC2CCNC2)c1 (stereo not drawn) [Example 433] |  | ≤ 10% |  |
| C=CCOc1ccc(OCc2ccc(Cl)cc2Br)cc1CNCC1CCNC1 (stereo not drawn) [Example 412] |  | ≤ 10% |  |
| C=CCOc1ccc(OCCNCC2CCNC2)c(/C=C/c2ccc(Cl)cc2Br)c1 (stereo not drawn) [Example 211] |  | ≤ 10% |  |
| Clc1ccc(/C=C/c2cc(CNCC3CCNC3)cc(OCc3ccccn3)c2)c(Br)c1 (stereo not drawn) [Example 346] |  | ≤ 10% | ≤ 50% |
| CC(C)COc1cc(/C=C/c2cccnc2)cc(C[N+](C)(C)CC2CCNC2)c1 (stereo not drawn) [Example 459] |  | ≤ 10% |  |
| C=CCOc1cc(CNCC2CNC2)cc(OCc2cc(C)on2)c1 [Example 420] | ≤ 50% |  |  |

| Structure (SMILES) | activity at 50 µM (P. aeruginosa PAO1) | activity at 25 µM (E. coli ATCC25922) | activity at 50 µM (E. coli ATCC25922) |
| --- | --- | --- | --- |
| Clc1ccc(/C=C/c2ccc(Cl)cc2OCCCNCC2CNC2)c(Br)c1 [Example 187] |  | ≤ 10% |  |
| Clc1ccc(OCc2cccc(CNCC3CNCCO3)c2)c(Br)c1 (stereo not drawn) [Example 65] |  | ≤ 10% |  |
| Clc1ccc(/C=C/c2cc(OCc3ccncc3)ccc2OCCCNCC2CNC2)c(Br)c1 [Example 519] |  | ≤ 10% |  |
| Clc1ccc(COCc2cccc(CNCC3CCNC3)c2)c(Br)c1 (stereo not drawn) [Example 174] |  | ≤ 10% |  |
| Clc1ccc(Oc2ccccc2CNCC2CCNC2)c(Br)c1 (stereo not drawn) [Example 84] |  | ≤ 10% |  |
| C=CCOc1cc(CNCC2CCNC2)cc(OCCc2cccnc2)c1 (stereo not drawn) [Example 418] |  |  | ≤ 50% |
| C=CCOc1cc(/C=C/c2ccc(C#N)nc2)cc(CNCC2CCNC2)c1 (stereo not drawn) [Example 326] |  | ≤ 10% |  |
| Clc1ccc(COc2cccc(NCC3CNC3)c2)cc1 [Example 23, N-(azetidin-3-ylmethyl)-3-[(4-chlorophenyl)methoxy]aniline] |  |  | ≤ 50% |
| CC(C)COc1cc(CNCC2CCNC2)cc(OCc2cccnc2Br)c1 (stereo not drawn) [Example 278] |  |  | ≤ 50% |
| Clc1ccc(/C=C/c2cccc(OCCCNCC3CNC3)c2)c(Br)c1 [Example 201, N-(azetidin-3-ylmethyl)-3-[3-[(E)-2-(2-bromo-4-chloro-phenyl)vinyl]phenoxy]propan-1-amine] |  | ≤ 10% |  |
| CC(C)(c1ccccc1)c1ccc(OCCCNCC2CNC2)cc1 [Example 29] |  | ≤ 10% |  |
| C=CCOc1cc(CNCC2CNC2)cc(OCCc2ccccn2)c1 [Example 409] |  |  | ≤ 50% |
| O=C(O)c1ccc(COc2cc(CNCC3CNC3)cc(OCc3ccc(Cl)cc3Br)c2)cc1 [Example 208] | ≤ 50% |  |  |
| C=CCOc1cc(/C=C/c2ccc(OC)cc2)cc(CNCC2CNC2)c1 [Example 294] |  | ≤ 10% |  |
| N#Cc1cncc(/C=C/c2cc(CNCC3CCNC3)cc(OCc3ccccn3)c2)c1 (stereo not drawn) [Example 474] | ≤ 50% |  |  |
| CC(C)(C)c1ccc(S(=O)(=O)NCc2cc(CNCC3CCNC3)cc(OCCc3c[nH]cn3)c2)cc1 (stereo not drawn) [Example 377] |  | ≤ 10% |  |
| Clc1cc(/C=C/c2ccc(Cl)cc2Br)cc(CNCC2CNC2)c1 [Example 159] |  | ≤ 10% |  |
| CC(C)COc1ccc(/C=C/c2ccc(Cl)cc2Br)cc1OCCCNCC1CNC1 [Example 513] |  | ≤ 10% |  |
| Clc1ccc(/C=C/c2cc(Cl)ccc2OCCCNCC2CCNC2)c(Br)c1 (stereo not drawn) [Example 186] |  | ≤ 10% |  |
| C=CCOc1cc(/C=C/c2nc(C(C)C)cs2)cc(CNCC2CNC2)c1 [Example 362] |  | ≤ 10% |  |
| CC(C)COc1cc(/C=C/c2cncc(C#N)c2)cc(C[N+](C)(C)CC2CCNC2)c1 (stereo not drawn) [Example 460] |  | ≤ 10% |  |
| Fc1cc(F)cc(COc2cccc(CNCC3CNC3)c2)c1 [Example 43] |  | ≤ 10% |  |
| C=CCOc1cc(/C=C/c2ccc(C#N)cn2)cc(CNCC2CCNC2)c1 (stereo not drawn) [Example 307] |  | ≤ 10% |  |
